The test system of series [1] is bronchoconstricting action of histamine. Briefly: Histamine bronchoconstriction in narcotized guinea pigs (Concette-Rossler method). In kind it is in vivo. As to conditions: intravenous, 0.1 to 0.2 mg/kg. The text has this:
As to the mechanism of its action, the medicated compound of the present invention represents an antagonist to histamine liberated in antigen-antibody reactions.

The test system of series [2] is bronchospasm caused by serotonine (5-hydroxytriptamine). Kind of series: Bronchospasm caused by serotonine. As to conditions: in vivo.
Series [3] deals with bronchospasm caused by acetylcholine. Briefly: Bronchospasm caused by acetylcholine. Conditions: in vivo.
The subject of series [4] is hypotensive activity of intravenously injected histamine. Briefly: Hypotensive activity of intravenous histamine in narcotized cats. It counts as in vivo. Conditions: 0.2 to 0.5 mg/kg, histamine 1 mcg/kg i.v.
Series [5] relates to intoxication caused by histamine aerosol. Briefly: Histamine aerosol intoxication in guinea pigs. It counts as in vivo. As to conditions: in the stomach, 30 to 50 mg/kg, spraying 300 seconds.
The subject of series [6] is ophthalmic response (hyperemia and chemosis) caused by histamine. Kind of series: Ophthalmic response to histamine instilled into conjunctival sac of guinea pigs. It counts as in vivo.
The subject of series [7] is foot edema caused by serotonin. Briefly: Rat foot edema caused by subplantar serotonin. It counts as in vivo, rats. The text has this:
(§1) The medicated compound of the present invention irrespectively of the medication mode exerts anti-edemic antianaphylactic action.

For series [8], the system named is foot edema caused by formalin. Kind of series: Rat foot edema caused by subplantar formalin. In kind it is in vivo, rats. As to conditions: 25 mg/kg intraperitoneally and 50 mg/kg in the stomach; formalin 0.2 ml of 2% solution; P over 0.05.
Description: as §1

Series [9] deals with foot edema caused by dextrane. Briefly: Rat foot edema caused by subplantar dextrane. In kind it is in vivo, rats. Conditions: 25 mg/kg intraperitoneally and 50 mg/kg in the stomach; dextrane 0.1 ml of 6% solution; P over 0.05.
Description: as §1

Series [10] relates to chronic aseptic inflammation. Briefly: Chronic aseptic inflammation by hypodermical implantation of wool balls to rats. It counts as in vivo. Conditions: hypodermically, 25 mg/kg.
Series [11] concerns heart-vascular system, digestive tract, and excretory organs. Kind of series: Pharmacological and toxicological studies: heart-vascular system, digestive tract, excretory organs. As to conditions: in vivo.
The test system of series [12] is central nervous system. Kind of series: Central nervous system effects in test animals. In kind it is in vivo. As to conditions: mice, rats, rabbits, cats; different modes of administration.
Series [13] concerns general state and behaviour of animals. Briefly: General state and behaviour after single medication. In kind it is in vivo, mice, rats, guinea pigs, cats and dogs. As to conditions: different modes, versus dimedrol and diprasine.
The next series is described as follows: Acute toxicity in rats. As to conditions: rat, in vivo, po, in the stomach.
Series [14] can be described thus: Acute toxicity in guinea pigs. It counts as in vivo.
The nature of series [15]: Repeated administration to rats. It counts as in vivo.
The nature of series [16]: Embryotoxicity / teratogenicity in pregnant rats. In kind it is in vivo. Conditions: per os, single doses 3/4 of LD50, various periods of pregnancy.
In another series the test system is allergic diseases. Kind of series: Clinical test on patients suffering from allergic diseases. It counts as in vivo. The text has this:
(§2) The medicated compound of the present invention was clinically tested on 250 patients aging from 18 to 70 years suffering from allergic diseases for a period of from 3 months to 10 years, and treated with various anti-histamine medicines.
The treatment with the medicated compound of the present invention was effected in allergological surgeries under ambulatory and stationary conditions.
The majority of the stationary patients were hospitalized with serious, or lasting allergic responses and frequently with accompanying diseases of the heart-vascular system, and digestive tract.
(§3) The medicated compound of the present invention was used for the treatment of acute and chronic urticaria, hay fever, Quincke's oedema, dermal itch, chronic eczema, polysyndromic phenomena of intolerance (arthropathy, eosinophilia, temperature increase), dermatoblepharoconjunctivitis, and bronchial-asthma.
(§4) In the case of dermatoblepharonconjunctivitis and some other allergic ophthalmic diseases, the medicated compound of the present invention was administered per os (one tablet of 0.025 g 3 to 4 times per day).
The medicated compound of the present invention was used individually (without an additional desensibilizing therapy) per os in a dose of from 3 to 6 tablets (0.025 g each) per day, usually directed after eating.

The next series deals with bronchial asthma. Kind of series: Clinical test: bronchial asthma. In kind it is in vivo. Conditions: patients.
Description: as §2, §3

Series [17] concerns dermatoblepharonconjunctivitis and some other allergic ophthalmic diseases. Briefly: Clinical test: dermatoblepharoconjunctivitis and other allergic ophthalmic diseases. It counts as in vivo, patients. As to the method:
as §2, §4

The next series in a line: Clinical tolerability. It counts as in vivo, patients.
Description: as §2
However, with the patients over 60 years of age, or those weakened by accompanying serious diseases, some cases of a "seductive" effect of the medicated compound of the present invention were noticed.

For series [18], the system named is central nervous system. Briefly: Depressive effect on the central nervous system. As to conditions: in vivo. The source says:
The majority of modern anti-histamine medicines reveal a strong sedative effect, whereby their administration is substantially limited in the ambulatory treatment, especially in the case of persons engaged in intellectual pursuits, or persons whose occupation requires quick physical and psychic responses, e.g. drivers of transport vehicles.

The next series is described as follows: Acute toxicity in mice. As to conditions: mouse, in vivo.
For series [19], the system named is anaphylactic response caused by ovalbumin. Briefly: Anaphylactic response to ovalbumin aerosol in actively sensibilized guinea pigs. As to conditions: 25 mg/kg intraperitoneally and 50 mg/kg in stomach; 25% ovalbumin aerosol, 10 minutes.
A short description of series [20]: Acute toxicity, diprasine, intravenous. As to conditions: intravenously.
Setting [21] is: rats, in the stomach, 22 times, 1/4 of LD50.

Structures can show the parent of a compound that is named as a salt.

With `OC(c1ccccc1)(c1ccccc1)C1CN2CCC1CC2` (centres unmarked) [(quinuclidyl-3)-diphenylcarbinol hydrochloride], the “bronchoconstricting action of histamine” value in series [1] was “weakens, or inhibits the bronchoconstricting action of histamine”. Further, the “influence on bronchospasm caused by serotonine” value in [2] was “only a slight influence”. Also, the “influence on bronchospasm caused by acetylcholine” value in [3] is recorded as “only a slight influence”. Moreover, the “hypotensive activity of histamine” value in series [4] is on record as “prevents hypotensive activity”. Also, the “protection from intoxication (dispnea, apnoea, clono-tonic spasm)” value in series [5] is on record as “completely protects the animals”. In series [6] (into the stomach, 50 mg/kg, 2% solution of histamine), the “ophthalmic response (hyperemia and chemosis)” value is given as “prevents or substantially reduces ophthalmic response”. Further, the “reduction of foot edema of hind limb, serotonin” value in series [7] (25 mg/kg intraperitoneally and 50 mg/kg in the stomach, serotonin 5 mcg, P over 0.05) is “more than 2 times”. The “anti-edemic efficiency relative to dimedrol and diprasine” value in series [7] (rat foot edema (serotonin, formalin, dextrane)) was “more efficient than dimedrol, and more active than diprasine (promethasine)”. In addition, the “reduction of foot edema of hind limb, formalin” value in series [8] was “more than 2 times”. Further, the “reduction of foot edema of hind limb, dextrane” value in series [9] is recorded as “more than 2 times”. Also, in series [10], the anti-inflammation effect result is “pronounced anti-inflammationeffect” and the “anti-inflammation effect relative to dimedrol” value is given as “superior over dimedrol”. Besides, in series [11], the “influence on heart-vascular system, digestive tract, and excretory organs” value was “only a relatively slight influence”. For the same compound, in the series with central nervous system [12], the “action of various hypnotics” value is listed as “does not extend the action of various hypnotics”, the “influence on latent period of conditioned reflexes” value was “nor has it any influence”, the “influence on spontaneous motor activity” value is recorded as “no influence” and the “influence on summation ability of the central nervous system” value is reported as “no influence”. The “influence on general state and behaviour of animals” value in series [13] was “to a considerably lesser extent than dimedrol (diphenhydramine) and especially diprasine (promethasine)”. The LD50 (usually the dose at which mortality reaches 50%) in “Acute toxicity in rats” was 440 mg/kg. The absolute lethal dose in [14] is 500 mg/kg. Also, in [15] (setting [21]), the “influence on general state and behaviour, peripheral blood, biochemical characteristics of blood and urina” value was “no essential influence”; the “pathomorphological changes in internal organs” value is reported as “no pathomorphological changes in internal organs”. Further, the “tolerance of repeated administration” value in [15] (relatively high doses) is “well tolerated by the test animals”. The “embriotoxic or teratogenic effects” value in series [16] is “does not exert any embriotoxic or teratogenic effects”. In addition, the “efficacy in allergic diseases” value in the series on allergic diseases (acute and chronic urticaria, hay fever, vasomotor rhinitis, Quincke's oedema, itching dermatosis, chronic eczema, polysyndromic phenomena of intolerance) is listed as “highly efficient”. Besides, in the series on allergic diseases (human, in vivo), the “efficacy in patients with developed adaptation to other anti-histamine medicines” value is on record as “efficient”. In addition, the “time to better condition of patients (dermal eruptions and itching reduced)” value with allergic diseases (per os, 3 to 6 tablets (0.025 g each) per day) stood at 3 days. Further, the “efficacy in bronchial asthma” value with bronchial asthma is recorded as “inefficient”. For the same compound, the “curing action in allergic ophthalmic diseases” value in series [17] (per os, one tablet of 0.025 g 3 to 4 times per day) is given as “satisfactory curing action”. The “therapeutic effect with corticosteroids” value in series [17] (simultaneous administration of corticosteroids (dexamethazone)) was “therapeutic effect was enhanced”. The tolerability entry in the series “Clinical tolerability” (human, in vivo) is “well tolerated”. Moreover, in the series “Clinical tolerability” (patients over 60 years of age or weakened by accompanying serious diseases), the “"seductive" effect” value was “some cases”. Also, the discomfort entry in “Clinical tolerability” (patients with accompanying serious diseases of the digestive tract) is “short-time phenomena of discomfort are possible”. In the series “Clinical tolerability” (patients with accompanying serious diseases of the digestive tract, without cancelling or reducing dosage), the “time to disappearance of discomfort” value lay within 1 to 2 days. Moreover, the “depressive effect on the central nervous system” value in the series with central nervous system [18] was “does not exert a depressive effect on the central nervous system”. In “Acute toxicity in mice” (iv), this compound had a median lethal dose (LD50) of 62 mg/kg. Further, the LD50 in “Acute toxicity in mice” (po) worked out at 370 mg/kg. Also, in series [19], the antiallergic effect result is “clearly pronounced antiallergic effect” and the “signs of anaphylactic response / latent period” value was “increasing the latent period, or completely inhibiting signs of anaphylactic response”.
As for `CN(C)CCOC(c1ccccc1)c1ccccc1` [dimedrol, diphenhydramine hydrochloride, reference compound], the “effect on ophthalmic response” value in series [6] (similar experiments, compared with the medicated compound) was “much less pronounced”.
Consider `CC(CN1c2ccccc2Sc2ccccc21)N(C)C` (centres unmarked) [diprasine (promethasine), promethasine], for which the “dose resulting in the death of half of the animals” value in series [20] is 25 mg/kg.

These data come from US4117139A, “Medicated compound for treating allergic diseases” (priority 1973, dated 1978).
